Experimental data: patent publication US20230145305A1, “COMPOUNDS USEFUL AS KINASE INHIBITORS” (Fochon Biosciences, Ltd., priority 2020, published 2023)

Tested on: OCI-LY10 cells
Test: Cell proliferation assay (MTS) in OCI-LY10 cells
Format: cell-based
Conditions: Homo sapiens, OCI-Ly10, 72 h, read-out: OCI-LY10 IC50 (nM)
Source text: MTS testing kit was purchased from Promega (Madison, Wis., USA). The RPMI-1640, Fetal bovine serum and Penicillin-Streptomycin were purchased from BI (Biological Industries, Beit Haemek, Israel). Dimethyl sulfoxide (DMSO) was purchased from Sigma (St. Louis., Mo., USA). […] To investigate whether a compound is able to inhibit the activity of BTK in cells, a mechanism-based assay using OCI-LY10 cells was developed. In this assay, inhibition of BTK was detected by the inhibition of OCI-LY10 cells proliferation. Cells were plated into 96-well plates at a density of 10000 cells/well. Plates were incubated at 37° C., with 5% CO2 for 4 h. […] Plates were incubated at 37° C., with 5% CO2 for 72 h. 20 μl MTS was added into each well and the plates were incubated at 37° C., with 5% CO2 for exactly 2 h. The absorbance was measured by a microplate reader at 490 nm. IC50 was calculated using GraphPad Prism 5.0 software. Select compounds prepared as described above were assayed according to the biological procedures described herein.

Structure (SMILES)	IC50
COc1ccc(F)cc1C(=O)NCc1ccc(-c2nc(C3CCCC3)n3ncnc(N)c23)cc1 [Example 12, N-(4-(4-amino-7-cyclopentylimidazo [5,1-f][1,2,4]triazin-5-yl)benzyl)-5-fluoro-2-methoxybenzamide]	9 nM

Same assay, conditions: Homo sapiens; inhibition of OCI-LY10 cells proliferation, 72 h incubation, MTS, absorbance at 490 nm; read-out: OCI-LY10 IC50

Structure (SMILES)	IC50
COc1ccc(F)cc1C(=O)NCc1ccc(-n2nc(C3CCCC3)c3ccnc(N)c32)cc1 [Example 14, N-(4-(7-amino-3-cyclopentyl-1H-pyrazolo [3,4-c]pyridin-1-yl)benzyl)-5-fluoro-2-methoxybenzamide]	85 nM
COc1ccc(F)cc1C(=O)NCc1ccc(-n2c(=O)n(C3CCCC3)c3ccnc(N)c32)cc1 [Example 22, N-(4-(4-amino-1-cyclopentyl-2-oxo-1,2-dihydro-3H-imidazo[4,5-c]pyridin-3-yl)benzyl)-5-fluoro-2-methoxybenzamide]	44 nM
COc1ccc(F)cc1C(=O)NCc1ccc(-c2cn(C3CC3)c3c(=O)[nH]nc(N)c23)cc1 [Example 34, N-(4-(4-amino-1-cyclopropyl-7-oxo-6,7-dihydro-1H-pyrrolo[2,3-d]pyridazin-3-yl)benzyl)-5-fluoro-2-methoxybenzamide]	4 nM
COc1ccc(F)cc1C(=O)NCc1ccc(-c2cn(C3CCOCC3)c3c(=O)[nH]nc(N)c23)cc1 [Example 37, N-(4-(4-amino-7-oxo-1-(tetrahydro-2H-pyran-4-yl)-6,7-dihydro-1H-pyrrolo [2,3-d]pyridazin-3-yl)benzyl)-5-fluoro-2-methoxybenzamide]	9 nM
COc1ccc(F)cc1C(=O)NCc1ccc(-c2cn(C3CCCC3(C)O)c3c(=O)[nH]nc(N)c23)cc1 (centres unmarked) [Example 38, N-(4-(4-amino-1-(2-hydroxy-2-methylcyclopentyl)-7-oxo-6,7-dihydro-1H-pyrrolo[2,3-d]pyridazin-3-yl)benzyl)-5-fluoro-2-methoxybenzamide]	35 nM
COc1ccc(F)cc1C(=O)NCc1ccc(-c2nn([C@@H](C)C(F)(F)F)c3c(=O)[nH]nc(N)c23)cc1 [Example 40a, (S)-N-(4-(4-amino-7-oxo-1-(1,1,1-trifluoropropan-2-yl)-6,7-dihydro-1H-pyrazolo[3,4-d]pyridazin-3-yl)benzyl)-5-fluoro-2-methoxybenzamide]	7 nM
COc1ccc(F)cc1C(=O)NCc1ccc(-c2nn([C@H](C)C(F)(F)F)c3c(=O)[nH]nc(N)c23)cc1 [Example 40b, (R)-N-(4-(4-amino-7-oxo-1-(1,1,1-trifluoropropan-2-yl)-6,7-dihydro-1H-pyrazolo[3,4-d]pyridazin-3-yl)benzyl)-5-fluoro-2-methoxybenzamide]	83 nM
COc1ccc(F)cc1C(=O)NCc1ccc(-n2nc(C(C)C(F)(F)F)c3c(=O)[nH]nc(N)c32)cc1 (centres unmarked) [Example 41, N-(4-(7-amino-4-oxo-3-(1,1,1-trifluoropropan-2-yl)-4,5-dihydro-1H-pyrazolo[3,4-d]pyridazin-1-yl)benzyl)-5-fluoro-2-methoxybenzamide]	18 nM
COc1ccc(F)cc1C(=O)NCc1ccc(-c2cn(C3CCCC3)c3c(=O)[nH]nc(N)c23)cn1 [Example 45, N-((5-(4-amino-1-cyclopentyl-7-oxo-6,7-dihydro-1H-pyrrolo[2,3-d]pyridazin-3-yl)pyridin-2-yl)methyl)-5-fluoro-2-methoxybenzamide]	32 nM
COc1ccc(F)cc1C(=O)NCc1ccc(-c2cn([C@@H]3CCN(C(=O)C4CC4)C3)c3c(=O)[nH]nc(N)c23)cc1 [Example 48, (R)-N-(4-(4-amino-1-(1-(cyclopropanecarbonyl)pyrrolidin-3-yl)-7-oxo-6,7-dihydro-1H-pyrrolo[2,3-d]pyridazin-3-yl)benzyl)-5-fluoro-2-methoxybenzamide]	48 nM
COC(=O)N1CC[C@@H](n2cc(-c3ccc(CNC(=O)c4cc(F)ccc4OC)cc3)c3c(N)n[nH]c(=O)c32)C1 [Example 49, methyl (R)-3-(4-amino-3-(4-((5-fluoro-2-methoxybenzamido)methyl)phenyl)-7-oxo-6,7-dihydro-1H-pyrrolo[2,3-d]pyridazin-1-yl)pyrrolidine-1-carboxylate]	9 nM
COc1ccc(F)cc1C(=O)NCc1ccc(-c2cn([C@@H]3CCN(S(C)(=O)=O)C3)c3c(=O)[nH]nc(N)c23)cc1 [Example 50, (R)-N-(4-(4-amino-1-(1-(methylsulfonyl)pyrrolidin-3-yl)-7-oxo-6,7-dihydro-1H-pyrrolo[2,3-d]pyridazin-3-yl)benzyl)-5-fluoro-2-methoxybenzamide]	19 nM
COc1ccc(F)cc1C(=O)NCc1ccc(-c2cn(C(C)C(F)(F)F)c3c(=O)[nH]nc(N)c23)cc1F (centres unmarked) [Example 53, N-(4-(4-amino-7-oxo-1-(1,1,1-trifluoropropan-2-yl)-6,7-dihydro-1H-pyrrolo[2,3-d]pyridazin-3-yl)-2-fluorobenzyl)-5-fluoro-2-methoxybenzamide]	3 nM
COc1ccc(F)cc1C(=O)NCc1ccc(-c2cn(C3CC(F)(F)C3)c3c(=O)[nH]nc(N)c23)cn1 [Example 55]	28 nM
COc1ccc(F)cc1C(=O)NCc1ccc(-c2cn(C3CC(F)(F)C3)c3c(=O)[nH]nc(N)c23)cc1F [Example 56, N-(4-(4-amino-1-(3,3-difluorocyclobutyl)-7-oxo-6,7-dihydro-1H-pyrrolo[2,3-d]pyridazin-3-yl)-2-fluorobenzyl)-5-fluoro-2-methoxybenzamide]	3 nM
COc1ccc(F)cc1C(=O)NCc1ccc(-c2cn([C@@H]3C[C@@H]3F)c3c(=O)[nH]nc(N)c23)cc1 [Example 57, N-(4-(4-amino-1-((1R,2S)-2-fluorocyclopropyl)-7-oxo-6,7-dihydro-1H-pyrrolo[2,3-d]pyridazin-3-yl)benzyl)-5-fluoro-2-methoxybenzamide]	24 nM
COc1ccc(F)cc1C(=O)NCc1ccc(-c2cn([C@@H]3C[C@@H]3F)c3c(=O)[nH]nc(N)c23)cc1F [Example 59, N-(4-(4-amino-1-((1R,2S)-2-fluorocyclopropyl)-7-oxo-6,7-dihydro-1H-pyrrolo[2,3-d]pyridazin-3-yl)-2-fluorobenzyl)-5-fluoro-2-methoxybenzamide]	62 nM
COc1ccc(F)cc1C(=O)NCc1ccc(-n2c(=O)n(C3CCCC3)c3c(=O)[nH]nc(N)c32)cc1 [Example 60, N-(4-(7-amino-3-cyclopentyl-2,4-dioxo-2,3,4,5-tetrahydro-1H-imidazo[4,5-d]pyridazin-1-yl)benzyl)-5-fluoro-2-methoxybenzamide]	30 nM
COc1ncc(F)cc1C(=O)NCc1ccc(-c2nn(C3CCCC3)c3c(=O)[nH]nc(N)c23)cc1 [Example 61, N-(4-(4-amino-1-cyclopentyl-7-oxo-6,7-dihydro-1H-pyrazolo[3,4-d]pyridazin-3-yl)benzyl)-5-fluoro-2-methoxynicotinamide]	15 nM

Now from value to compound:

IC50	Structure (SMILES)
2 nM	COc1ccc(F)cc1C(=O)NCc1ccc(-c2nc(C3CCCC3)n3ccnc(N)c23)cc1 [Example 13, N-(4-(8-amino-3-cyclopentylimidazo [l,5-a]pyrazin-1-yl)benzyl)-5-fluoro-2-methoxybenzamide]
1 nM	COc1ccc(F)cc1C(=O)NCc1ccc(-n2nc(C3CCCC3)c3c(=O)[nH]nc(N)c32)cc1 [Example 16, N-(4-(7-amino-3-cyclopentyl-4-oxo-4,5-dihydro-1H-pyrazolo[3,4-d]pyridazin-1-yl)benzyl)-5-fluoro-2-methoxybenzamide]
1 nM	COc1ccc(F)cc1C(=O)NCc1ccc(-n2cc(C3CCCC3)c3ncnc(N)c32)cc1 [Example 18, N-(4-(4-amino-7-cyclopentyl-5H-pyrrolo [3,2-d]pyrimidin-5-yl)benzyl)-5-flu oro-2-methoxybenzamide]
1 nM	COc1ccc(F)cc1C(=O)NCc1ccc(-n2cc(C3CCCCC3)c3c(=O)[nH]nc(N)c32)cc1 [Example 27, N-(4-(7-amino-3-cyclohexyl-4-oxo-4,5-dihydro-1H-pyrrolo[2,3-d]pyridazin-1-yl)benzyl)-5-fluoro-2-methoxybenzamide]
1 nM	COc1ccc(F)cc1C(=O)NCc1ccc(-c2cn(C3CCCC3)c3c(=O)[nH]nc(N)c23)cc1F [Example 30, N-(4-(4-amino-1-cyclopentyl-7-oxo-6,7-dihydro-1H-pyrrolo[2,3-d]pyridazin-3-yl)-2-fluorobenzyl)-5-fluoro-2-methoxybenzamide]
1 nM	COc1ccc(F)cc1C(=O)NCc1ccc(-c2cn(C3CCCC3)c3c(=O)[nH]nc(N)c23)c(F)c1 [Example 31, N-(4-(4-amino-1-cyclopentyl-7-oxo-6,7-dihydro-1H-pyrrolo[2,3-d]pyridazin-3-yl)-3-fluorobenzyl)-5-fluoro-2-methoxybenzamide]
1 nM	COc1ccc(F)cc1C(=O)NCc1ccc(-c2cn(C3CCCCC3)c3c(=O)[nH]nc(N)c23)cc1 [Example 35, N-(4-(4-amino-1-cyclohexyl-7-oxo-6,7-dihydro-1H-pyrrolo[2,3-d]pyridazin-3-yl)benzyl)-5-fluoro-2-methoxybenzamide]
1 nM	COc1ccc(F)cc1C(=O)NCc1ccc(-c2cn(C3CCC3)c3c(=O)[nH]nc(N)c23)cc1 [Example 36, N-(4-(4-amino-1-cyclobutyl-7-oxo-6,7-dihydro-1H-pyrrolo[2,3-d]pyridazin-3-yl)benzyl)-5-fluoro-2-methoxybenzamide]
1 nM	COc1ccc(F)cc1C(=O)NCc1ccc(-c2cn(C3CC(F)(F)C3)c3c(=O)[nH]nc(N)c23)cc1 [Example 54, N-(4-(4-amino-1-(3,3-difluorocyclobutyl)-7-oxo-6,7-dihydro-1H-pyrrolo[2,3-d]pyridazin-3-yl)benzyl)-5-fluoro-2-methoxybenzamide]
